Results: ChEMBL document CHEMBL5230103, “Hydroxamic acid hybrids as the potential anticancer agents: An Overview” (Eur J Med Chem, 2020)
In brackets after ≈: the same amount, converted by molar mass.

Assays:
Histone deacetylase = experiment: Inhibition of HDAC (unknown origin); assay type: protein assay, Homo sapiens
PC-3 [1] = experiment: Cytotoxicity against human PC-3 cells assessed as inhibition of cell growth by SRB assay; assay type: functional, cell-based
MV4-11 = experiment: Cytotoxicity against human MV4-11 cells assessed as inhibition of cell growth by SRB assay; assay type: functional, cell-based
MCF7 [2] = experiment: Cytotoxicity against human MCF7 cells assessed as inhibition of cell growth by MTT assay; assay type: functional, cell-based
HepG2 [3] = experiment: Cytotoxicity against human HepG2 cells assessed as inhibition of cell growth by MTT assay; assay type: functional, cell-based
HL-60 = experiment: Antiproliferative activity against human HL-60 cells assessed as inhibition of cell growth by MTT assay; assay type: functional, cell-based
MCF7 [4] = experiment: cells; assay type: functional, cell-based; conditions: Homo sapiens, MCF7, 72 h
Description: Cytotoxicity against human MCF7 cells assessed as inhibition of cell growth measured after 72 hrs by MTT assay

U2OS = experiment: cells; assay type: functional, cell-based; conditions: Homo sapiens, 72 h
Description: Cytotoxicity against human U2OS cells assessed as inhibition of cell growth measured after 72 hrs by MTT assay

HepG2 [5] = experiment: Cytotoxicity against human HepG2 cells assessed as inhibition of cell growth measured after 72 hrs by MTT assay; assay type: functional, cell-based; conditions: HepG2, 72 h
PC-3 [6] = experiment: Cytotoxicity against human PC-3 cells assessed as inhibition of cell growth by MTT assay; assay type: functional, cell-based
SW-620 [7] = experiment: Cytotoxicity against human SW620 cells assessed as inhibition of cell growth by MTT assay; assay type: functional, cell-based
SW-620 [8] = experiment: Potency index, ratio of vorinostat IC50 to test compound IC50 for cytotoxicity against human SW620 cells assessed as inhibition of cell growth by MTT assay; assay type: functional
PC-3 [9] = experiment: Potency index, ratio of vorinostat IC50 to test compound IC50 for cytotoxicity against human PC-3 cells assessed as inhibition of cell growth by MTT assay; assay type: functional
NCI-H23 [10] = experiment: Cytotoxicity against human NCI-H23 cells assessed as inhibition of cell growth by MTT assay; assay type: functional, cell-based
NCI-H23 [11] = experiment: Potency index, ratio of vorinostat IC50 to test compound IC50 for cytotoxicity against human NCI-H23 cells assessed as inhibition of cell growth by MTT assay; assay type: functional
ASPC1 = experiment: Cytotoxicity against human ASPC1 cells assessed as inhibition of cell growth by MTT assay; assay type: functional, cell-based
A549 = experiment: Cytotoxicity against human A549 cells assessed as inhibition of cell growth by MTT assay; assay type: functional, cell-based
K562 = experiment: Cytotoxicity against human K562 cells assessed as inhibition of cell growth by MTT assay; assay type: functional, cell-based
MDA-MB-231 = experiment: Cytotoxicity against human MDA-MB-231 cells assessed as inhibition of cell growth by MTT assay; assay type: functional, cell-based
RPMI-8226 = experiment: Cytotoxicity against human RPMI-8226 cells assessed as inhibition of cell growth by MTS assay; assay type: functional, cell-based
HCT-116 = experiment: Cytotoxicity against human HCT-116 cells assessed as inhibition of cell growth by MTT assay; assay type: functional, cell-based

| IC50 (Histone deacetylase) | Structure (SMILES) | IC50 (PC-3 [1]) | IC50 (MV4-11) | IC50 (MCF7 [2]) | other results |
| --- | --- | --- | --- | --- | --- |
| 278 nM | CC(C)n1cnc2c(-c3ccc(COCC(=O)NO)cc3)nc(N3CCOCC3)nc21 | 970 nM | 970 nM | – | – |
| – | C[C@H]1[C@@H](NC(=O)CCCCCC(=O)NO)O[C@@H]2O[C@@]3(C)CC[C@H]4[C@H](C)CC[C@@H]1[C@@]24OO3 | – | – | 1.28 µg/mL | IC50 (HepG2 [3]): 1.28 µg/mL; IC50 (HL-60): 1.28 µg/mL (≈ 2.91 µM) |
| – | COc1cc(NC(C)CCCNC(=O)CCC(=O)NO)c2ncccc2c1 (stereo not drawn) | – | – | – | IC50 (MCF7 [4]): 1600 nM; IC50 (U2OS): 1600 nM; IC50 (HepG2 [5]): 1600 nM |
| 170 nM | Cc1ccc2c(=O)n(Cc3ccc(/C=C/C(=O)NO)cc3)cnc2c1 | – | – | – | IC50 (PC-3 [6]): 620 nM; IC50 (SW-620 [7]): 620 nM; Ratio IC50 (SW-620 [8]): >3; Ratio IC50 (PC-3 [9]): >3; IC50 (NCI-H23 [10]): 620 nM; Ratio IC50 (NCI-H23 [11]): >3 |
| – | O=C(CCCCCCC(=O)Nc1nnc(-c2ccco2)s1)NO | – | – | 880 nM | IC50 (PC-3 [6]): 880 nM; IC50 (SW-620 [7]): 880 nM; IC50 (ASPC1): 880 nM |
| – | C[C@H]1[C@@H](NC(=O)CCCCC(=O)NO)O[C@@H]2O[C@@]3(C)CC[C@H]4[C@H](C)CC[C@@H]1[C@@]24OO3 | – | – | 1.28 µg/mL | IC50 (HepG2 [3]): 1.28 µg/mL; IC50 (HL-60): 1.28 µg/mL (≈ 3 µM) |
| 278 nM | CC(C)n1cnc2c(-c3ccc(OCCCCCCC(=O)NO)cc3)nc(N3CCOCC3)nc21 | 970 nM | 970 nM | – | – |
| – | Cc1ccc(-c2nnc(NC(=O)CCCCCCC(=O)NO)s2)s1 | – | – | 880 nM | IC50 (PC-3 [6]): 880 nM; IC50 (SW-620 [7]): 880 nM; IC50 (ASPC1): 880 nM |
| 35 nM | CC(C)n1cnc2c(-c3cccc(OCCCCCCCC(=O)NO)c3)nc(N3CCOCC3)nc21 | 160 nM | 160 nM | – | – |
| – | Cc1ccc(-c2nnc(NC(=O)CCCCCCC(=O)NO)s2)o1 | – | – | 880 nM | IC50 (PC-3 [6]): 880 nM; IC50 (SW-620 [7]): 880 nM; IC50 (ASPC1): 880 nM |
| 200 nM | O=C(CCC(=O)Nc1nnc(-c2ccc(Cl)cc2)s1)NO | – | – | – | IC50 (A549): 14700 nM; IC50 (K562): 14700 nM; IC50 (PC-3 [6]): 14700 nM; IC50 (MDA-MB-231): 14700 nM |
| – | CCCCCSc1ncc(C(=O)NO)c(N(Cc2ccccc2)S(=O)(=O)c2ccc(OC)cc2)n1 | – | – | – | IC50 (RPMI-8226): > 7800 nM |
| 200 nM | CC(C)c1ccc(C(C)c2nnc(NC(=O)CCC(=O)NO)s2)cc1 (stereo not drawn) | – | – | – | IC50 (A549): 14700 nM; IC50 (K562): 14700 nM; IC50 (PC-3 [6]): 14700 nM; IC50 (MDA-MB-231): 14700 nM |
| 278 nM | CC(C)n1cnc2c(-c3ccc(OCCCCCCCC(=O)NO)cc3)nc(N3CCOCC3)nc21 | 970 nM | 970 nM | – | – |
| – | C[C@H]1[C@@H](NC(=O)CCCCCCCC(=O)NO)O[C@@H]2O[C@@]3(C)CC[C@H]4[C@H](C)CC[C@@H]1[C@@]24OO3 | – | – | 1.28 µg/mL | IC50 (HepG2 [3]): 1.28 µg/mL; IC50 (HL-60): 1.28 µg/mL (≈ 2.73 µM) |
| 35 nM | CC(C)n1cnc2c(-c3cccc(COCC(=O)NO)c3)nc(N3CCOCC3)nc21 | 160 nM | 160 nM | – | – |
| 35 nM | CC(C)n1cnc2c(-c3cccc(COCCCCCC(=O)NO)c3)nc(N3CCOCC3)nc21 | 160 nM | 160 nM | – | – |
| 35 nM | CC(C)n1cnc2c(-c3cccc(OCC(=O)NO)c3)nc(N3CCOCC3)nc21 | 160 nM | 160 nM | – | – |
| – | CCCCCCSc1ncc(C(=O)NO)c(N(Cc2ccccc2)S(=O)(=O)c2ccc(OC)cc2)n1 | – | – | – | IC50 (RPMI-8226): > 7800 nM |
| – | C[C@H]1[C@@H](NC(=O)CCCC(=O)NO)O[C@@H]2O[C@@]3(C)CC[C@H]4[C@H](C)CC[C@@H]1[C@@]24OO3 | – | – | 1.28 µg/mL | IC50 (HepG2 [3]): 1.28 µg/mL; IC50 (HL-60): 1.28 µg/mL (≈ 3.1 µM) |
| – | O=C(COc1ccc(C(=O)/C=C/c2ccccc2)cc1)NO | – | – | 620 nM | IC50 (HepG2 [3]): 620 nM; IC50 (HCT-116): 620 nM |
| 278 nM | CC(C)n1cnc2c(-c3ccc(OCCCCCC(=O)NO)cc3)nc(N3CCOCC3)nc21 | 970 nM | 970 nM | – | – |
| 35 nM | CC(C)n1cnc2c(-c3cccc(OCCCCCC(=O)NO)c3)nc(N3CCOCC3)nc21 | 160 nM | 160 nM | – | – |
| 35 nM | CC(C)n1cnc2c(-c3cccc(COCCCCC(=O)NO)c3)nc(N3CCOCC3)nc21 | 160 nM | 160 nM | – | – |
| 35 nM | CC(C)n1cnc2c(-c3cccc(COCCCCCCC(=O)NO)c3)nc(N3CCOCC3)nc21 | 160 nM | 160 nM | – | – |
| – | COc1ccc(/C=C/C(=O)c2ccc(OCC(=O)NO)cc2)cc1 | – | – | 620 nM | IC50 (HepG2 [3]): 620 nM; IC50 (HCT-116): 620 nM |
| 278 nM | CC(C)n1cnc2c(-c3ccc(OCC(=O)NO)cc3)nc(N3CCOCC3)nc21 | 970 nM | 970 nM | – | – |
